Target: T1, 3-oxo-5-alpha-steroid 4-dehydrogenase 2 (Homo sapiens, UniProt P31213)
T1 sequence (P31213 whole entry): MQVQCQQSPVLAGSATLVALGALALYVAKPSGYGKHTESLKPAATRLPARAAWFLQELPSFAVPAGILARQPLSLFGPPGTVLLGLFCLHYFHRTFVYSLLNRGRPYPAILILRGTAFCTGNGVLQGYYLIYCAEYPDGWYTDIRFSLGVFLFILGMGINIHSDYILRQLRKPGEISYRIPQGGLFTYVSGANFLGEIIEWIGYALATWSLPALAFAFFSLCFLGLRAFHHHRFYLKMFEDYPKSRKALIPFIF
Experiment: 5Alpha-Reductase Activity Assay
Details: pH 6.5; 37 °C
From the text: The IC50 values for the synthesized steroids with human prostate 5alpha-reductase enzyme.

Compound	IC50
CC(=O)[C@@]1(OC(=O)c2ccc(Br)cc2)CCC2C3CC[C@@]45O[C@@H]4C(=O)CC[C@]5(C)C3CC[C@@]21C (stereo not given in full) [Steroid, 10b]	4.9 nM
CC(=O)[C@@]1(OC(=O)c2ccccc2)CCC2C3CC[C@@]45O[C@@H]4C(=O)CC[C@]5(C)C3CC[C@@]21C (stereo not given in full) [Steroid, 10a]	13 nM

Results, then the compound that gave them:

IC50	Compound
370 nM	CC(=O)[C@@]1(OC(=O)c2ccc(Br)cc2)CCC2C3CCC4=CC(=O)CC[C@]4(C)C3CC[C@@]21C (stereo not given in full) [Steroid, 9b]
8.5 nM	CC(C)(C)NC(=O)[C@H]1CCC2C3CCC4NC(=O)C=C[C@]4(C)C3CC[C@@]21C (stereo not given in full) [Finasteride, 3]
360 nM	CC(=O)[C@@]1(OC(=O)c2ccccc2)CCC2C3CCC4=CC(=O)CC[C@]4(C)C3CC[C@@]21C (stereo not given in full) [Steroid, 9a]
